Experimental data taken from patent US20220257727A1, “PHARMACEUTICAL COMPOSITION CONTAINING LYSOZYME AND USE THEREOF” (GUANGZHOU CENTURY CLINICAL RESEARCH., LTD., priority 2019, published 2022).

How the values were obtained:
[1] = system: psoriasis; assay: Case studies of patients with drug-resistant psoriasis (PASI score, skin state, recurrence, tolerability)
From the text: (§1) Psoriasis can be divided into mild, moderate, and severe according to the severity. The severity can be determined by PASI (Psoriasis Area Severity Index) scores. PASI is a set of scoring indicators that are widely used internationally to reflect the severity of psoriasis. In the scoring system, four parts, i.e., the head, upper limbs, torso, and lower limbs, are used for comprehensive scoring according to indicators such as erythema, desquamation, infiltration, and area of involvement. The higher the score, the more severe the condition of psoriasis. The specific scoring rules are well known in the field of medical diagnosis.
(§2) Ineffective: The PASI score of psoriasis after treatment is more than 50% of the score before treatment, namely, PASI after treatment÷PASI before treatment×100%>50%.

[2] = system: psoriasis; conditions: human, in vivo
From the text: as §1, §2

[3] = Example 4, person, tretinoin cream, calcipotriol ointment and other treatments
[4] = Example 4, after tretinoin cream, calcipotriol ointment and other treatments
[5] = Example 6, person, tretinoin cream, calcipotriol ointment, methotrexate tablets and other treatments in the past
[6] = Example 6, after tretinoin cream, calcipotriol ointment, methotrexate tablets and other treatments, severe psoriasis
[7] = Example 7, after secukinumab treatment

CC1=C(/C=C/C(C)=C/C=C/C(C)=C/C(=O)O)C(C)(C)CCC1 [tretinoin cream, tretinoin]
effect of treatment [1, 3]: healed | relapse [1, 4]: relapsed three months after the drug withdrawal | effect of treatment [1, 5]: not alleviated | PASI score [1, 6]: 13.8

CN(Cc1cnc2nc(N)nc(N)c2n1)c1ccc(C(=O)N[C@@H](CCC(=O)O)C(=O)O)cc1 [methotrexate tablets, methotrexate]
relapse ([1]; Example 3, after relief, within two years follow-up): relapsed twice | effect of treatment ([1]; Example 3, taken after lysozyme buccal tablets withdrawal, self-reported): the psoriasis was relieved | PASI score ([1]; Example 4, after oral methotrexate treatment): 9.3 | effect of treatment ([1]; Example 4, oral treatment after relapse): the condition was not alleviated | effect of treatment [1, 5]: not alleviated | PASI score [1, 6]: 13.8

Adalimumab
PASI decrease ([1]; Example 6, after one course of treatment, PASI before 13.8): 32%

secukinumab: IL-17 inhibitor
PASI decrease [1, 7]: 10% | PASI score [1, 7]: 8.7 | tolerability [2]: intolerance occurred

CCOC(=O)c1ccc(C#Cc2ccc3c(c2)C(C)(C)CCS3)nc1 [tazarotene cream, tazarotene]
effect of treatment ([1]; Example 5, person, two months of treatment): ineffective

C=C1/C(=C\C=C2/CCC[C@]3(C)[C@@H]([C@H](C)/C=C/[C@@H](O)C4CC4)CC[C@@H]23)C[C@@H](O)C[C@@H]1O [calcipotriol ointment, calcipotriol]
PASI score ([1]; Example 3, person, after 1 month of use): 5.3 | PASI improvement vs before treatment ([1]; Example 3, after 1 month of use): 10% | effect of treatment [1, 3]: healed | relapse [1, 4]: relapsed three months after the drug withdrawal | effect of treatment [1, 5]: not alleviated | PASI score [1, 6]: 13.8 | skin irritation [2]: severe
